Laboratory results taken from patent publication US12678509B2, “Inhibitor of apoptosis (IAP) protein antagonists” (Sanford Burnham Prebys Medical Discovery Institute, priority 2019, dated 2026).
Read-outs that look alike come from different tables or passages of the source.

Legend:
[1] = system: PBMC or resting CD4+ T cells; experiment: Cytokine release (LEGENDplex Human Inflammation Panel 13-plex); format: cell-based; details: PBMC or resting CD4+ T cells of healthy human donors (FIG. 3)
Protocol: Compound 18a was also tested for its impact on T cell activation and cytokine release. Peripheral blood mononuclear cells (PBMC) were isolated by Ficoll density gradient centrifugation (Histopaque, Sigma Aldrich) from buffy coats of three healthy human donors (San Diego Blood Bank). Resting CD4^+ T cells were subsequently isolated by negative selection using magnetic beads (Miltenyi Biotec). Cells were treated with compound 18a, or 50 ng/ml Phorbol myristate acetate (PMA) and 1 μM lonomycin, or Dynabeads Human T-Activator CD3/CD28 (ThermoFisher Scientific) at a bead-to-cell ratio of 1:1, or left untreated. Expression of the early and late activation markers CD69 and CD25 on CD4+ T cells was assessed by flow cytometry using a Phycoerythrin-labeled anti-CD69 antibody (BioLegend; Cat #310906) and an Allophycocyanin-labeled anti-CD25 antibody (BioLegend; Cat #302610). Cytokine expression levels in cultures of PBMC or resting CD4+ T cells were analyzed using the LEGENDplex Human Inflammation Panel 13-plex (BioLegend).

[2] = system: MOLM 13; experiment: Cell viability (CellTiter-Glo), 6-day compound treatment; format: cell-based, Human; details: for IC50: Homo sapiens, MOLM-13, 144 h
In short: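 Cells plated at 1700 per well, left overnight at 37° C./5% CO2, then exposed to 10-fold compound dilutions for 6 days […]. Viability by CellTiter-Glo luminescence; IC50 from nonlinear regression fit.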

[3] = system: H69AR; experiment: as above; format: cell-based, Human
Protocol: (§1) The compound 18a was tested in 16 different cell lines. For 6-day compound treatment 1700 cells per well were plated in a 384-well plate (Corning #781098) and incubated overnight at 37° C./5% CO2. The following day, compounds in 10-fold dilutions were added to the plates and the plates were incubated for 6 days. Afterwards, 20 μL CellTiter-Glo reagent (Promega, #G7570) was added to each well outside of the incubator and the plates were read for luminescence on a Spark® multimode microplate reader (Tecan). Data was fit in GraphPad Prism 8 to a nonlinear regression curve to determine the IC50 of the compounds.

[4] = system: MV411; experiment: as above; format: cell-based, Human
Protocol: as §1

[5] = system: PANC1; experiment: as above; format: cell-based, Human
Protocol: as §1

[6] = system: MDA-MB-468; experiment: as above; format: cell-based, Human
Protocol: as §1

[7] = system: HFF; experiment: as above; format: cell-based, Human; details: Homo sapiens, 144 h, read-out: IC50 6 d
Protocol: as §1

[8] = system: BxPC3; experiment: as above; format: cell-based, Human
Protocol: as §1

[9] = system: MALME 3M; experiment: as above; format: cell-based, Human
Protocol: as §1

[10] = system: MiaPaCa2; experiment: as above; format: cell-based, Human
Protocol: as §1

[11] = system: HL-60; experiment: as above; format: cell-based, Human
Protocol: as §1

[12] = as above; format: cell-based, Human; details: human, HFF cells, 6 d, read-out: Cell viability at max. concentration
Protocol: as §1

[13] = system: BT549; experiment: as above; format: cell-based, Human
Protocol: as §1

[14] = system: NCI-H510A; experiment: as above; format: cell-based, Human
Protocol: as §1

[15] = system: SHP-77; experiment: as above; format: cell-based, Human
Protocol: as §1

[16] = system: AML-SH-065; experiment: Cell viability in patient derived AML samples (CellTiterGlo, 72 h); format: cell-based, human
In short: (§2)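 Ficoll-purified peripheral blood mononuclear cells from AML patients, kept in mTeSR1 with supplements, were incubated 72 h with serially diluted IAP inhibitors in triplicate. Viability by CellTiterGlo luminescence normalised to DMSO controls; IC50 from four-parameter variable-slope fit.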

[17] = system: AML-SH-075; experiment: as above; format: cell-based, human
In short: as §2

[18] = system: AML-SH-074; experiment: as above; format: cell-based, human
In short: as §2

[19] = Homo sapiens, 144 h, read-out: IC50 6 d

CN[C@@H](C)C(=O)N[C@H]1CCS[C@H]2CC(C)(C)[C@@H](C(=O)N[C@H]3c4ccccc4C[C@H]3OCC#CC#CCO[C@@H]3Cc4ccccc4[C@@H]3NC(=O)[C@H]3N4C(=O)[C@@H](NC(=O)[C@H](C)NC)CCS[C@H]4CC3(C)C)N2C1=O [Compound 18a, (2S)-1-{[(4S,7S,9aS)-74{(1S,2R)-2-[(6-{[(1S,2R)-1-({[(4S,7S,9aS)-8,8-Dimethyl-4-{[(2S)-2-(methylammonio)propanoyl]amino}-5-oxooctahydropyrrolo[2,1-b][1,3]thiazepin-7-yl]carbonyl}amino)-2,3-dihydro-1H-inden-2-yl]oxy}hexa-2,4-diyn-1-yl)oxy]-2,3-dihydro-1H-inden-1-yl}carbamoyl)-8,8-dimethyl-5-oxooctahydropyrrolo[2,1-b][1,3]thiazepinyl]amino}-N-methyl-1-oxopropan-2-ammonium dichloride]
1000 to 10000 nM: IC50 [3, 19] | IC50 ([8]; Homo sapiens, BXPC-3, 144 h, read-out: IC50 6 d) | IC50 ([10]; Homo sapiens, MIA PaCa-2, 144 h, read-out: IC50 6 d)
100 to 1000 nM: IC50 ([4]; Homo sapiens, MV4-11, 144 h, read-out: IC50 6 d) | IC50 ([6]; Homo sapiens, MDA-MB-468, 144 h, read-out: IC50 6 d) | IC50 ([18]; Homo sapiens, 72 h, read-out: AML-SH-074 IC50)
10 to 100 nM: IC50 ([2]; read-out: IC50 6 d) | IC50 ([2]; read-out: MOLM 13 Viability 6 d IC50) | IC50 ([9]; Homo sapiens, Malme-3M, 144 h, read-out: IC50 6 d) | IC50 ([11]; Homo sapiens, HL-60, 144 h, read-out: IC50 6 d) | IC50 ([13]; Homo sapiens, BT-549, 144 h, read-out: IC50 6 d) | IC50 ([17]; Homo sapiens, 72 h, read-out: AML-SH-075 IC50)
< 100000 nM: IC50 ([5]; Homo sapiens, PANC-1, 144 h, read-out: IC50 6 d) | IC50 [7] | IC50 [14, 19] | IC50 ([15]; Homo sapiens, SHP77, 144 h, read-out: IC50 6 d)
< 10 nM: IC50 ([16]; Homo sapiens, 72 h, read-out: AML-SH-065 IC50)
I (I < 10%): AML-SH-065 Efficacy ([16]; patient derived AML sample AML-SH-065, 72 h, cell viability at max. concentration) | AML-SH-075 Efficacy ([17]; patient derived AML sample AML-SH-075, 72 h, cell viability at max. concentration) | AML-SH-074 Efficacy ([18]; patient derived AML sample AML-SH-074, 72 h, cell viability at max. concentration)
I (I<10%): Cell viability at max. concentration ([2]; MOLM 13, 6 d) | Cell viability at max. concentration ([3]; 6 d) | Cell viability at max. concentration ([4]; MV411, 6 d) | Cell viability at max. concentration ([6]; MDA-MB-468, 6 d) | Cell viability at max. concentration ([9]; MALME 3M, 6 d) | Cell viability at max. concentration ([10]; MiaPaCa2, 6 d) | Cell viability at max. concentration ([11]; HL-60, 6 d) | Cell viability at max. concentration ([13]; BT549, 6 d)
IV (IV<100%): Cell viability at max. concentration ([5]; PANC1, 6 d) | Cell viability at max. concentration ([14]; 6 d) | Cell viability at max. concentration ([15]; SHP-77, 6 d)
III (50%<III<100%): Cell viability at max. concentration ([8]; BxPC3, 6 d)
did not induce: cytokine release [1]
< 100%: viability at 6 d [12]
